What was measured:
[1] = test system: human adrenal gland section expressing aldosterone-producing adenoma; assay: In vitro autoradiography using human adrenal adenoma; format: binding; details: section of FIG. 17(a)
In short: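 Frozen 7-μm sections of human adrenal bearing aldosterone-producing adenoma were immersed 10 min in radioligand (5-33 kBq/mL) in PBS with 1% fatty-acid-free BSA, washed, then exposed to imaging plates for 16-20 h. Equal-area ROI PSL in adenoma (B2) versus normal cortex (B1) gave B2/B1, corrected for nuclide half-life, added activity and exposure time.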

[2] = Plasma stability evaluation (TLC analysis); format: in vitro ADME; details: 37° C., 60 minutes, TLC analysis
In short: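 Radiolabelled compounds were incubated in heparin-treated pooled normal human plasma at 37° C for 60 minutes. After methanol deproteinization and centrifugation, stability was assessed by TLC under the conditions used for each compound's synthesis.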

[3] = In vivo kinetics experiment (radioactivity distribution); parameters: species or system Wistar male rat; details: rat, caudal vein
In short: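 Male Wistar rats (9 weeks) under isoflurane received approximately 1 to 3.7 MBq radiotracer in saline with 1 w/v % ascorbic acid by tail-vein injection. At 10, 30 and 60 min, rats were exsanguinated; blood, organs and remaining body weighed and counted, giving % ID/g and adrenal-to-tissue ratios.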

[123I]c1ccc2nc(-c3cncc(Cn4ccnc4)c3)n(C3CC3)c2c1 [[^123I] 602, 1-Cyclopropyl-2-[3-(1H-imidazol-1-ylmethyl)pyridin-5-yl]-6-[^123I]iodo-1H-benzimidazole]
B2/B1 accumulation ratio [1]: 2.06
B2 (PSL value, aldosterone-producing adenoma) ([1]; site 71a): 6142
B1 (PSL value, normal adrenal cortex) ([1]; site 72a): 2981
Radiochemical purity after incubation in human plasma [2]: 82%
Adrenal gland/blood ratio of radioactivity accumulation ([3]; 10 min after administration): 28.34 ± 5.95
Adrenal gland/fat ratio of radioactivity accumulation ([3]; 10 min after administration): 89.23 ± 14.22
Adrenal gland/kidney ratio of radioactivity accumulation ([3]; 10 min after administration): 5.85 ± 1.07
Adrenal gland/liver ratio of radioactivity accumulation ([3]; 10 min after administration): 3.02 ± 0.41
Adrenal gland/muscle ratio of radioactivity accumulation ([3]; 10 min after administration): 54.21 ± 12.64
Adrenal gland/small intestine ratio of radioactivity accumulation ([3]; 10 min after administration): 6.95 ± 1.48
Radioactivity distribution Adrenal gland ([3]; 10 min after administration): 9.09 ± 2.28 % ID/g
Radioactivity distribution Bladder (including urine) ([3]; 10 min after administration): 0.32 ± 0.15 % ID/g
Radioactivity distribution Blood ([3]; 10 min after administration): 0.32 ± 0.01 % ID/g
Radioactivity distribution Fat ([3]; 10 min after administration): 0.10 ± 0.01 % ID/g
Radioactivity distribution Heart ([3]; 10 min after administration): 0.63 ± 0.07 % ID/g
Radioactivity distribution Kidney ([3]; 10 min after administration): 1.54 ± 0.11 % ID/g
Radioactivity distribution Large intestine ([3]; 10 min after administration): 0.19 ± 0.00 % ID/g
Radioactivity distribution Liver ([3]; 10 min after administration): 2.98 ± 0.35 % ID/g
Radioactivity distribution Lung ([3]; 10 min after administration): 1.06 ± 0.09 % ID/g
Radioactivity distribution Muscle (lower limbs) ([3]; 10 min after administration): 0.17 ± 0.00 % ID/g
Radioactivity distribution Remaining whole body ([3]; 10 min after administration): 0.27 ± 0.01 % ID/g
Radioactivity distribution Small intestine ([3]; 10 min after administration): 1.30 ± 0.05 % ID/g
Radioactivity distribution Spleen ([3]; 10 min after administration): 5.26 ± 1.78 % ID/g
Radioactivity distribution Stomach ([3]; 10 min after administration): 1.03 ± 0.28 % ID/g
Radioactivity distribution Testis ([3]; 10 min after administration): 0.07 ± 0.02 % ID/g
Radioactivity distribution Thyroid gland ([3]; 10 min after administration): 3.54 ± 0.37 % ID/g
Radioactivity distribution Whole brain ([3]; 10 min after administration): 0.02 ± 0.00 % ID/g
Adrenal gland/blood ratio of radioactivity accumulation ([3]; 30 min after administration): 40.26 ± 12.64
Adrenal gland/fat ratio of radioactivity accumulation ([3]; 30 min after administration): 147.73 ± 74.06
Adrenal gland/kidney ratio of radioactivity accumulation ([3]; 30 min after administration): 17.90 ± 4.66
Adrenal gland/liver ratio of radioactivity accumulation ([3]; 30 min after administration): 13.82 ± 3.67
Adrenal gland/muscle ratio of radioactivity accumulation ([3]; 30 min after administration): 110.91 ± 25.83
Adrenal gland/small intestine ratio of radioactivity accumulation ([3]; 30 min after administration): 9.24 ± 1.46
Radioactivity distribution Adrenal gland ([3]; 30 min after administration): 16.93 ± 3.32 % ID/g
Radioactivity distribution Bladder (including urine) ([3]; 30 min after administration): 1.35 ± 0.14 % ID/g
Radioactivity distribution Blood ([3]; 30 min after administration): 0.43 ± 0.05 % ID/g
Radioactivity distribution Fat ([3]; 30 min after administration): 0.12 ± 0.04 % ID/g
Radioactivity distribution Heart ([3]; 30 min after administration): 0.49 ± 0.01 % ID/g
Radioactivity distribution Kidney ([3]; 30 min after administration): 0.95 ± 0.06 % ID/g
Radioactivity distribution Large intestine ([3]; 30 min after administration): 0.19 ± 0.00 % ID/g
Radioactivity distribution Liver ([3]; 30 min after administration): 1.24 ± 0.09 % ID/g
Radioactivity distribution Lung ([3]; 30 min after administration): 0.76 ± 0.04 % ID/g
Radioactivity distribution Muscle (lower limbs) ([3]; 30 min after administration): 0.15 ± 0.01 % ID/g
Radioactivity distribution Remaining whole body ([3]; 30 min after administration): 0.31 ± 0.01 % ID/g
Radioactivity distribution Small intestine ([3]; 30 min after administration): 1.83 ± 0.07 % ID/g
Radioactivity distribution Spleen ([3]; 30 min after administration): 5.44 ± 1.82 % ID/g
Radioactivity distribution Stomach ([3]; 30 min after administration): 2.24 ± 0.39 % ID/g
Radioactivity distribution Testis ([3]; 30 min after administration): 0.12 ± 0.00 % ID/g
Radioactivity distribution Thyroid gland ([3]; 30 min after administration): 9.97 ± 0.74 % ID/g
Radioactivity distribution Whole brain ([3]; 30 min after administration): 0.02 ± 0.00 % ID/g
Adrenal gland/blood ratio of radioactivity accumulation ([3]; 60 min after administration): 29.41 ± 3.13
Adrenal gland/fat ratio of radioactivity accumulation ([3]; 60 min after administration): 105.17 ± 28.98
Adrenal gland/kidney ratio of radioactivity accumulation ([3]; 60 min after administration): 18.87 ± 3.12
Adrenal gland/liver ratio of radioactivity accumulation ([3]; 60 min after administration): 16.66 ± 3.13
Adrenal gland/muscle ratio of radioactivity accumulation ([3]; 60 min after administration): 95.38 ± 22.07
Adrenal gland/small intestine ratio of radioactivity accumulation ([3]; 60 min after administration): 6.64 ± 2.31
Radioactivity distribution Adrenal gland ([3]; 60 min after administration): 11.65 ± 1.54 % ID/g
Radioactivity distribution Bladder (including urine) ([3]; 60 min after administration): 1.27 ± 0.07 % ID/g
Radioactivity distribution Blood ([3]; 60 min after administration): 0.40 ± 0.01 % ID/g
Radioactivity distribution Fat ([3]; 60 min after administration): 0.11 ± 0.02 % ID/g
Radioactivity distribution Heart ([3]; 60 min after administration): 0.35 ± 0.03 % ID/g
Radioactivity distribution Kidney ([3]; 60 min after administration): 0.62 ± 0.08 % ID/g
Radioactivity distribution Large intestine ([3]; 60 min after administration): 0.43 ± 0.19 % ID/g
Radioactivity distribution Liver ([3]; 60 min after administration): 0.70 ± 0.05 % ID/g
Radioactivity distribution Lung ([3]; 60 min after administration): 0.60 ± 0.03 % ID/g
Radioactivity distribution Muscle (lower limbs) ([3]; 60 min after administration): 0.12 ± 0.02 % ID/g
Radioactivity distribution Remaining whole body ([3]; 60 min after administration): 0.33 ± 0.02 % ID/g
Radioactivity distribution Small intestine ([3]; 60 min after administration): 1.85 ± 0.44 % ID/g
Radioactivity distribution Spleen ([3]; 60 min after administration): 5.27 ± 0.89 % ID/g
Radioactivity distribution Stomach ([3]; 60 min after administration): 4.35 ± 0.25 % ID/g
Radioactivity distribution Testis ([3]; 60 min after administration): 0.15 ± 0.01 % ID/g
Radioactivity distribution Thyroid gland ([3]; 60 min after administration): 19.76 ± 1.03 % ID/g
Radioactivity distribution Whole brain ([3]; 60 min after administration): 0.02 ± 0.00 % ID/g
